Source: US9670227B2, “Thienopyrimidine derivatives, a process for their preparation and pharmaceutical compositions containing them” (LES LABORATOIRES SERVIER, priority 2013, dated 2017)

Biological target: Mcl-1 protein (UniProtKB primary accession number: Q07820) (Homo sapiens, UniProt Q07820)
Assay: Inhibition of Mcl-1 by fluorescence polarisation, Method 1
Assay type: binding
Details: for IC50: fluorescence polarisation, Method 1, or Method 2, read-out: IC50 (M) Mcl-1 FP; for percentage fluorescence polarisation inhibition, Mcl-1 FP: partial inhibitors, @ 10 uM test compound
How it was run: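 An 11-point DMSO dilution of compound is mixed with buffer (10 mM HEPES, 150 mM NaCl, 0.05% Tween 20, pH 7.4) carrying 1 nM fluorescein-labelled ligand and 5 nM Mcl-1, final concentrations. Displacement is monitored by fluorescence polarisation.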

Mcl-1 protein, sequence (Q07820 whole entry): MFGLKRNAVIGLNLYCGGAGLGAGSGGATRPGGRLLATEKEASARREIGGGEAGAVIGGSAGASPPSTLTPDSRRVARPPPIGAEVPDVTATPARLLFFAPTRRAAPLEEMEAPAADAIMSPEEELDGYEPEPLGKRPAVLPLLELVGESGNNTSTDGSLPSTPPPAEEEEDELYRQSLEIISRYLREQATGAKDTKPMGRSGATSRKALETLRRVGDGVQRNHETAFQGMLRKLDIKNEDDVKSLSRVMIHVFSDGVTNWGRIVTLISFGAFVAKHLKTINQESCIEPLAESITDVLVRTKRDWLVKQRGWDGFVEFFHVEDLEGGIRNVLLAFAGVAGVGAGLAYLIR

Structure (SMILES) | IC50 [M] | percentage fluorescence polarisation inhibition, Mcl-1 FP [% @ 10 uM]
CCc1sc2ncnc(OC(Cc3ccccc3)C(=O)O)c2c1-c1cc(Cl)c(O)cc1C [Example 439, (2R)-2-{[(5Ra)-5-(5-chloro-4-hydroxy-2-methylphenyl)-6-ethylthieno[2,3-d]pyrimidin-4-yl]oxy}-3-phenylpropanoic acid] | 2.5e-07 | 
CCc1sc2ncnc(OC(Cc3ccccc3)C(=O)O)c2c1-c1cc2c(c(Cl)c1C)OCC(=O)N2 [Example 441, (2R)-2-{[(5Sa)-5-(8-chloro-7-methyl-3-oxo-3,4-dihydro-2H-1,4-benzoxazin-6-yl)-6-ethylthieno[2,3-d]pyrimidin-4-yl]oxy}-3-phenylpropanoic acid] | 2.7e-08 | 
CCc1sc2ncnc(O[C@H](Cc3ccccc3)C(=O)O)c2c1-c1cc2cc(CN(C)C)oc2c(Cl)c1C [Example 442, (2R)-2-[((5Sa)-5-{7-chloro-2-[(dimethylamino)methyl]-6-methyl-1-benzofuran-5-yl}-6-ethylthieno[2,3-d]pyrimidin-4-yl)oxy]-3-phenylpropanoic acid] | 1.1e-07 | 
CCc1sc2ncnc(OC(Cc3ccccc3)C(=O)O)c2c1-c1cc2nc(C)oc2c(Cl)c1C [Example 444, (2R)-2-{[(5Sa)-5-(7-chloro-2,6-dimethyl-1,3-benzoxazol-5-yl)-6-ethylthieno[2,3-d]pyrimidin-4-yl]oxy}-3-phenylpropanoic acid] | 1.2e-08 | 
CCc1sc2ncnc(OC(Cc3ccccc3)C(=O)O)c2c1-c1ccc(O)cc1C [Example 448, (2R)-2-{[6-ethyl-(5Ra)-5-(4-hydroxy-2-methylphenyl)thieno[2,3-d]pyrimidin-4-yl]oxy}-3-phenylpropanoic acid] | 4.4e-07 | 
CCc1sc2ncnc(OC(Cc3ccccc3)C(=O)O)c2c1-c1cccc(Cl)c1C [Example 450, (2R)-2-{[(5Sa)-5-(3-chloro-2-methylphenyl)-6-ethylthieno[2,3-d]pyrimidin-4-yl]oxy}-3-phenylpropanoic acid] | 2.6e-08 | 
CCc1sc2ncnc(OC(Cc3ccccc3)C(=O)O)c2c1-c1cccc(Cl)c1C [Example 451, (2R)-2-{[(5Ra)-5-(3-chloro-2-methylphenyl)-6-ethylthieno[2,3-d]pyrimidin-4-yl]oxy}-3-phenylpropanoic acid] | 5.8e-07 | 
CCc1sc2ncnc(OC(Cc3ccccc3OCC(F)(F)F)C(=O)O)c2c1-c1ccc(OCCN2CCN(C)CC2)c(Cl)c1C [Example 454, (2R)-2-[((5Sa)-5-{3-chloro-2-methyl-4-[2-(4-methylpiperazin-1-yl)ethoxy]phenyl}-6-ethylthieno[2,3-d]pyrimidin-4-yl)oxy]-3-[2-(2,2,2-trifluoroethoxy)phenyl]propanoic acid] | 1.2e-08 | 
CCc1sc2ncnc(O[C@@H](Cc3cccc4ccoc34)C(=O)O)c2c1-c1ccc(OCCN2CCN(C)CC2)c(Cl)c1C [Example 462, (2S)-3-(1-benzofuran-7-yl)-2-[((5Ra)-5-{3-chloro-2-methyl-4-[2-(4-methylpiperazin-1-yl)ethoxy]phenyl}-6-ethylthieno[2,3-d]pyrimidin-4-yl)oxy]propanoic acid] | 3.7e-05 | 
CC#Cc1sc2ncnc(O[C@H](Cc3ccccc3OC)C(=O)O)c2c1-c1cc(N2CCN(C)CC2)c(OC)c(Cl)c1C [Example 472, (2R)-2-({(5Ra)-5-[3-chloro-4-methoxy-2-methyl-5-(4-methylpiperazin-1-yl)phenyl]-6-(prop-1-yn-1-yl)thieno[2,3-d]pyrimidin-4-yl}oxy)-3-(2-methoxyphenyl)propanoic acid] |  | 13.05
CC#Cc1sc2ncnc(OC(Cc3ccccc3OC)C(=O)O)c2c1-c1cc(N2CCN(C)CC2)c(OC)c(Cl)c1C [Example 473, (2R)-2-({(5Sa)-5-[3-chloro-4-methoxy-2-methyl-5-(4-methylpiperazin-1-yl)phenyl]-6-(prop-1-yn-1-yl)thieno[2,3-d]pyrimidin-4-yl}oxy)-3-(2-methoxyphenyl)propanoic acid] | 5e-08 | 
CC#Cc1sc2ncnc(OC(Cc3ccccc3OC)C(=O)O)c2c1-c1cc(C)c(OCCN2CCN(C)CC2)c(Cl)c1C [Example 474, (2R)-2-{[(5Ra)-5-{3-chloro-2,5-dimethyl-4-[2-(4-methylpiperazin-1-yl)ethoxy]phenyl}-6-(prop-1-yn-1-yl)thieno[2,3-d]pyrimidin-4-yl]oxy}-3-(2-methoxyphenyl)propanoic acid] | 5.5e-07 | 
CC#Cc1sc2ncnc(O[C@H](Cc3ccccc3OCc3ccnc(-c4ccccc4OC)n3)C(=O)O)c2c1-c1ccc(OCCN2CCN(C)CC2)c(Cl)c1C [Example 482, (2R)-2-{[(5Sa)-5-{3-chloro-2-methyl-4-[2-(4-methylpiperazin-1-yl)ethoxy]phenyl}-6-(prop-1-yn-1-yl)thieno[2,3-d]pyrimidin-4-yl]oxy}-3-(2-{[2-(2-methoxyphenyl)pyrimidin-4-yl]methoxy}phenyl)propanoic acid] | 7.4e-09 | 

The next lines start with the values.

IC50 [M] | percentage fluorescence polarisation inhibition, Mcl-1 FP [% @ 10 uM] | Structure (SMILES)
3.2e-08 |  | CCc1sc2ncnc(OC(Cc3ccccc3)C(=O)O)c2c1-c1cc(N)c(O)c(Cl)c1C [Example 431, (2R)-2-{[(5Sa)-5-(5-amino-3-chloro-4-hydroxy-2-methylphenyl)-6-ethylthieno[2,3-d]pyrimidin-4-yl]oxy}-3-phenylpropanoic acid]
8.5e-08 |  | CCc1sc2ncnc(OC(Cc3ccccc3)C(=O)O)c2c1-c1cc(Cl)c(O)cc1C [Example 438, (2R)-2-{[(5Sa)-5-(5-chloro-4-hydroxy-2-methylphenyl)-6-ethylthieno[2,3-d]pyrimidin-4-yl]oxy}-3-phenylpropanoic acid]
3e-07 |  | CCc1sc2ncnc(OC(Cc3ccccc3)C(=O)O)c2c1-c1cc(OCCN2CCN(C)CC2)ccc1C [Example 440, (2R)-2-[(6-ethyl-(5Sa)-5-{2-methyl-5-[2-(4-methylpiperazin-1-yl)ethoxy]phenyl}thieno[2,3-d]pyrimidin-4-yl)oxy]-3-phenylpropanoic acid and (2S)-2-[(6-ethyl-(5Ra)-5-{2-methyl-5-[2-(4-methylpiperazin-1-yl)ethoxy]phenyl}thieno[2,3-d]pyrimidin-4-yl)oxy]-3-phenylpropanoic acid]
1.8e-08 |  | CCc1sc2ncnc(OC(Cc3ccccc3)C(=O)O)c2c1-c1cc2ccoc2c(Cl)c1C [Example 443, (2R)-2-{[(5Sa)-5-(7-chloro-6-methyl-1-benzofuran-5-yl)-6-ethylthieno[2,3-d]pyrimidin-4-yl]oxy}-3-phenylpropanoic acid]
6.8e-08 |  | CCc1sc2ncnc(OC(Cc3ccccc3)C(=O)O)c2c1-c1ccc(O)cc1C [Example 447, (2R)-2-{[6-ethyl-(5Sa)-5-(4-hydroxy-2-methylphenyl)thieno[2,3-d]pyrimidin-4-yl]oxy}-3-phenylpropanoic acid]
3e-07 |  | CCc1sc2ncnc(OC(Cc3ccccc3)C(=O)O)c2c1-c1cccc(O)c1C [Example 452, (2R)-2-{[6-ethyl-(5Sa)-5-(3-hydroxy-2-methylphenyl)thieno[2,3-d]pyrimidin-4-yl]oxy}-3-phenylpropanoic acid and (2S)-2-{[6-ethyl-(5Ra)-5-(3-hydroxy-2-methylphenyl)thieno[2,3-d]pyrimidin-4-yl]oxy}-3-phenylpropanoic acid]
3.4e-08 |  | CCc1sc2ncnc(OC(Cc3ccccc3OCCOC)C(=O)O)c2c1-c1ccc(OCCN2CCN(C)CC2)c(Cl)c1C [Example 457, (2R)-2-[((5Sa)-5-{3-chloro-2-methyl-4-[2-(4-methylpiperazin-1-yl)ethoxy]phenyl}-6-ethylthieno[2,3-d]pyrimidin-4-yl)oxy]-3-[2-(2-methoxyethoxy)phenyl]propanoic acid]
3.9e-07 |  | CCc1sc2ncnc(OC(Cc3ccccc3F)C(=O)O)c2c1-c1ccc(OCCN2CCN(C)CC2)c(Cl)c1C [Example 464, (2S)-2-[((5Ra)-5-{3-chloro-2-methyl-4-[2-(4-methylpiperazin-1-yl)ethoxy]phenyl}-6-ethylthieno[2,3-d]pyrimidin-4-yl)oxy]-3-(2-fluorophenyl)propanoic acid]
2.8e-08 |  | CC#Cc1sc2ncnc(OC(Cc3ccccc3OC)C(=O)O)c2c1-c1ccc(O)c(Cl)c1C [Example 480, (2R)-2-{[(5Sa)-5-(3-chloro-4-hydroxy-2-methylphenyl)-6-(prop-1-yn-1-yl)thieno[2,3-d]pyrimidin-4-yl]oxy}-3-(2-methoxyphenyl)propanoic acid]
3e-09 |  | CC#Cc1sc2ncnc(OC(Cc3ccccc3OCc3ccnn3CCCC)C(=O)O)c2c1-c1ccc(OCCN2CCN(C)CC2)c(Cl)c1C [Example 490, (2R)-3-{2-[(1-butyl-1H-pyrazol-5-yl)methoxy]phenyl}-2-{[(5Sa)-5-{3-chloro-2-methyl-4-[2-(4-methylpiperazin-1-yl)ethoxy]phenyl}-6-(prop-1-yn-1-yl)thieno[2,3-d]pyrimidin-4-yl]oxy}propanoic acid]
 | 28.3 | CC#Cc1sc2ncnc(O[C@@H](Cc3cccc4occc34)C(=O)O)c2c1-c1ccc(OCCN2CCN(C)CC2)c(Cl)c1C [Example 491, (2S)-3-(1-benzofuran-4-yl)-2-{[(5Ra)-5-{3-chloro-2-methyl-4-[2-(4-methylpiperazin-1-yl)ethoxy]phenyl}-6-(prop-1-yn-1-yl)thieno[2,3-d]pyrimidin-4-yl]oxy}propanoic acid]
5e-09 |  | CC/C=C\c1sc2ncnc(O[C@H](Cc3ccccc3)C(=O)O)c2c1-c1ccc(OCCN2CCN(C)CC2)c(Cl)c1C [Example 493, (2R)-2-[(6-[(1Z)-but-1-en-1-yl]-(5Sa)-5-{3-chloro-2-methyl-4-[2-(4-methylpiperazin-1-yl)ethoxy]phenyl}thieno[2,3-d]pyrimidin-4-yl)oxy]-3-phenylpropanoic acid]
4.4e-08 |  | CC(C)=Cc1sc2ncnc(OC(Cc3ccccc3)C(=O)O)c2c1-c1ccc(OCCN2CCN(C)CC2)c(Cl)c1C [Example 494, (2R)-2-{[(5Sa)-5-{3-chloro-2-methyl-4-[2-(4-methylpiperazin-1-yl)ethoxy]phenyl}-6-(2-methylprop-1-en-1-yl)thieno[2,3-d]pyrimidin-4-yl]oxy}-3-phenylpropanoic acid]
